Data from publication PMC3526545, “New perspectives for natural antimicrobial peptides: application as antinflammatory drugs in a murine model” (BMC Immunology, 2012).
“And” between values parts separate entries of the source, which are not always exact repeats. Identical values can stand only once.

Columns and labels:
[1] = test system: Staphylococcus epidermidis strains; test: % inhibition of bacterial growth by the MIX and its components; assay type: cell-based; details: MIX = both
Procedure: (§1) Antibacterial activity of the peptides used in this work was evaluated as described previously. […] The fractional inhibitory concentration (FIC) index for combinations of two peptides was calculated according to the equation: FIC index = […] = A/MICA + B/MICB , where A and B are the MICs of drug A and drug B in the combination, MICA and MICB are the MICs of drug A and drug B alone, and FICA and FICB are the FICs of drug A and drug B. The FIC indices were interpreted as follows: ≤0.5, synergy; 0.51-4.0, no interaction; > 4.0, antagonism. The growth inhibition percentages of Staphylococcus epidermidis and probiotic strains were assessed under the same conditions.

[2] = test system: Staphylococcus epidermidis strains; test: Antibacterial activity of AMPs (MIC100) and synergism (FIC index); assay type: cell-based; details: against Staphylococcus epidermidis strains, single agent
Procedure: as §1, with “antagonism.” for “antagonism. The growth inhibition percentages of Staphylococcus epidermidis and probiotic strains were assessed under the same conditions.”

J774 cells = test: Nitrite (NO2-) formation in J774 cells, Griess reaction; assay type: cell-based, mouse

KKYLLPI VGNLLKSLL-NH2 [TB-KK, analogue of the temporin B]
% inhibition of bacterial growth ([1]; strain 2/2, RJI-C 9 μg/ml, TB-KK 6 μg/ml): 23 ± 0.5% | % inhibition of bacterial growth ([1]; strain 3/28, RJI-C 9 μg/ml (7.3 μM), TB-KK 6 μg/ml (2.6 μM)): 19 ± 2% | % inhibition of bacterial growth ([1]; strain 5/6, RJI-C 9 μg/ml, TB-KK 6 μg/ml): 10 ± 1% | % inhibition of bacterial growth ([1]; strain 5/8, RJI-C 9 μg/ml, TB-KK 6 μg/ml): 21 ± 2% | % inhibition of bacterial growth ([1]; strain 5/25, RJI-C 9 μg/ml, TB-KK 6 μg/ml): 21 ± 1% | % inhibition of bacterial growth ([1]; strain 9/1, RJI-C 9 μg/ml, TB-KK 6 μg/ml): 26 ± 2% | % inhibition of bacterial growth ([1]; strain 10/28, RJI-C 9 μg/ml, TB-KK 6 μg/ml): 4 ± 1% | % inhibition of bacterial growth ([1]; strain 12/14, RJI-C 9 μg/ml, TB-KK 6 μg/ml): 20 ± 3% | % inhibition of bacterial growth ([1]; strain 12/26, RJI-C 9 μg/ml, TB-KK 6 μg/ml): 14 ± 2% | MIC100 ([2]; 10^5 CFU/well): 7 µg/mL | MIC ([2]; value in brackets): 3 µM | NO2- production of J774 cells (J774 cells): 0.82 ± 0.05 μmol/10^6 cells and 1.25 ± 0.2 μmol/10^6 cells and 1.34 ± 0.2 μmol/10^6 cells | NO2- synthesis in LPS-stimulated J774 cells, in words (J774 cells): reduced NO2^- synthesis
